Values quoted from earlier work, collected in patent US20130116211A1, “Novel Salts Of Boswellic Acids And Selectively Enriched Boswellic Acids And Processes For The Same” (priority 2005, published 2013).

Key:
[1] = test system: symptoms of osteoarthritis; conditions: relieving the symptoms of osteoarthritis, double-blind studies
[2] = biological target: T1, 5-LOX (Homo sapiens, UniProt P09917)
T1 sequence (P09917 1-674): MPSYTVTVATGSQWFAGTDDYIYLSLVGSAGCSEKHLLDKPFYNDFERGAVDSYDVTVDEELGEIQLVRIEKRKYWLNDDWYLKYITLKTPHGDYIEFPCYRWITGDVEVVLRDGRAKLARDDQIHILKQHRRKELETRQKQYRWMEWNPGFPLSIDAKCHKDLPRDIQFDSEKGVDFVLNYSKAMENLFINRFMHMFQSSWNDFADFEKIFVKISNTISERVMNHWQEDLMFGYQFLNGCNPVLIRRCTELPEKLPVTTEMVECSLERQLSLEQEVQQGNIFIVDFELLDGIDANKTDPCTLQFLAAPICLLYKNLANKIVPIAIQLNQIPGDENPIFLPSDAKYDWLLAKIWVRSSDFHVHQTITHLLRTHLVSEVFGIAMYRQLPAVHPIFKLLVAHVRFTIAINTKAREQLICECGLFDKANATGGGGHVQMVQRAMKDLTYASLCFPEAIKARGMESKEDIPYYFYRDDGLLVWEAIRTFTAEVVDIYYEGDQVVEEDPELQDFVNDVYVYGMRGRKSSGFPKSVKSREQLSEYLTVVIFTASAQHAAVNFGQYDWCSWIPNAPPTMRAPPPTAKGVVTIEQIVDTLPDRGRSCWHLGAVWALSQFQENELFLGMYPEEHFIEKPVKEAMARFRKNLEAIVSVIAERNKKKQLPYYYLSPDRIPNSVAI

| Compound | therapeutic effects versus non steroidal anti-inflammatory drugs [1] | mechanism of 5-LOX inhibition ([2]; binds in a calcium-dependent and reversible manner (Sailer 1998)) | inhibitory activity against 5-LOX ([2]; compared among all the six boswellic acids (Sailer 1996)) |
| --- | --- | --- | --- |
| N[C@H]1C(O)O[C@H](CO)[C@@H](O)[C@@H]1O.O=S(=O)(O)O (stereo partly drawn) [glucosamine sulfate] | comparable to or even better than | – | – |
| 3-O-acetyl-11-keto-β-boswellic acid [AKBA] | – | non-redox-type, non-competitive inhibitor | most pronounced inhibitory activity |
